Data on two compounds can be found in patent US20060241108A1, “Substituted phenoxazines and acridones as inhibitors of AKT” (St. Jude Children's Research Hospital, priority 2005, published 2006).

Usually IC50 stands for the point on the concentration scale where inhibition reaches its midpoint.

In series [1] the test system is Rh18 cells. Description: Determination of apoptosis (Annexin V-FITC/propidium iodide flow cytometry), Rh18 cells. The note with it: Rh18, 7.5 μM, four days, n = 3. In general terms: Flow cytometry measures light scatter and fluorescence of single cells or particles in a stream.
Method: (§4) Determination of apoptosis. An ApoAlert™ Annexin V-FITC Apoptosis kit (available from Clontech, Palo Alto, Calif.) can be used to evaluate the extent of apoptosis within cell populations. Cells (Rh1: 350,000 per 75-cm^2 flask; Rh18: 800,000 per 75-cm^2 flask; or Rh30: 500,000 per 75-cm^2 flask) are preferably grown overnight in complete medium. On day 1, cells are treated with DMSO (0.1%; vehicle control) or with a test compound (e.g., a phenoxazine or acridone compound). After 4 days, the cells are trypsinized, washed with PBS, and resuspended in 200 μl of binding buffer. Cells are then incubated with 10 μl of annexin V-FITC (final concentration, 1 μg/ml) and 500 ng of propidium iodide in a final volume of 410 μl. Cells are preferably incubated at room temperature in the dark for ten minutes before flow cytometric analysis with an FACSCalibur™ Flow Cytometry System (Becton Dickinson, San Jose, Calif.).
(§5) For instance, Rh1, Rh18 and/or Rh30 cells can be grown in complete medium with 0.1% DMSO (as a negative control) or with one or more test compounds, e.g., any of the phenoxazine compounds listed in Table I, above, including but not limited to the compounds 10B, 11B, 13B, 14B or 15B. […] Cells are then harvested, and the extent of apoptosis evaluated, e.g., by an ApoAlert™ (Clontech, Palo Alto, Calif.) flow cytometric assay.
In series [2] the test system is Rh18 cells. The series is described as follows: Cell growth inhibition, Rh18 cells. The format is cell-based, human. Particulars: complete medium, six days, nuclei counted. On the procedure: (§1) Cell lines and growth conditions. The human cell lines Rh1, Rh18, and Rh30 (ATCC Deposit # CRL 2061) have been described, e.g., by Hazelton et al. Cancer Res 1987;47:4501-4507 and Hosoi et al. Cancer Res. 1999;59:886-894. Rh1, Rh18 and Rh30 cells can each be grown in antibiotic free RPMI-1640 medium (available from BioWhittaker, Walkersville, Md.), supplemented with 10% fetal bovine serum (available from HyClone Laboratories, Logan, Utah) and 2 mM L-glutamine (available from BioWhittaker, Walkersville, Md.) at 37° C. in an atmosphere of 5% CO2. For serum free experiments, cells can be cultured in modified N2E (MN2E) medium (DMEM/F-12, 1:1 mixture) (Sigma, St. Louis, Mo.) supplemented with 1 μg/ml human holo transferrin, 30 nM sodium selenite, 20 nM progesterone, 100 μM putrescine, 30 nM vitamin E phosphate, and 50 μM ethanolamine. […]
(§2) Cell growth inhibition. […] Growth can be assessed after lysing cells, and counting nuclei. […]
(§3) The effect(s) of compounds, including phenoxazine compounds such as those listed in Table I, above, on cell growth can be evaluated in cell-based assays such as the exemplary assays described here. Rh1, Rh18 and/or Rh30 cells grown in complete medium can be exposed to graded concentrations of test compound (e.g., from 0.1 to 25 μM) for six days, at which time the cells can be lysed and their growth assessed by counting nuclei. […]

For series [3], the system named is endogenous AKT. Description: Cellular AKT kinase activity: AKT immunoprecipitated from treated Rh1 cells phosphorylates GSK-3 fusion protein. The format is cell-based, human. The note with it: 5 μM, 1 hour, IGF-I 10 minutes. On the procedure:
Determination of cellular AKT kinase activity. AKT kinase activity can be quantitated using a commercial assay kit (available from Cell Signaling Technology, Beverly, Mass.) according to the manufacturer's instructions. Specifically, Rh1 cells are seeded in serum-free medium at a density of 4×10^6 per 10-cm plate. […] Cells are then stimulated with ±IGF-I ([…]) for 10 minutes and washed once with ice-cold PBS. Cells are lysed in 200 μl of ice-cold 1× lysis buffer (20 mM Tris, pH 7.5; 150 mM NaCl; 1 mM EDTA; 1 mM EGTA; 1% Triton X-100; 2.5 mM sodium pyrophosphate; 1 mM β-glycerol phosphate; 1 mM Na3VO4; 1 mM phenylmethylsulfonyl fluoride; and 1 mM leupeptin) and incubated for 10 minutes on ice. The cell lysates are then centrifuged for 10 minutes at 17,500×g at 4° C. Volumes of the supernatants are preferably adjusted so that each sample contains an equal amount of protein (150 μg). The supernatants are then incubated with immobilized (cross-linked) anti-AKT antibody (Cell Signaling Technology, Beverly, Mass., catalog # 9279) for 3 hours at 4° C. […]
To determine directly whether compounds, such as the phenoxazine compounds in Table I, inhibit AKT activation in cells, the activation of AKT by IGF-I can be evaluated by assessing either phosphorylation of AKT (Ser473), or the in vitro kinase activity of protein immunoprecipitated by anti-AKT antibody. […]

Series [4] has as its system Rh30 cells. The series is described as follows: Cell growth inhibition, Rh30 cells. The format is cell-based, human. The note with it: complete medium, six days, nuclei counted. Here is the method: as §1, §2, §3
For series [5], the system named is Rh30 cells. The series is described as follows: Determination of apoptosis (Annexin V-FITC/propidium iodide flow cytometry), Rh30 cells. Particulars: Rh30, 7.5 μM, four days, n = 3.
Method: as §4, §5

As for “10-[4′-[(β-hydroxyethyl)piperazino]butyl]-2-chlorophenoxazine [Compound 15B]”, the “Percentage of cells ± SD, Apoptotic” value is recorded as 32.70 ± 8.99% in series [1] and 88.67 ± 1.69% in series [5]. Besides, the IC50 in series [2] came to 5 µM; in series [4], 6 µM. Besides, the “phosphorylation of GSK-3 fusion protein by AKT immunoprecipitated from treated cells” value in series [3] is “completely inhibited”.

With `CCN(CC)CCCCN1c2ccccc2Oc2ccc(Cl)cc21` [Compound 10B, 10-[4′-(N-diethylamino)butyl]-2-chlorophenoxazine], the “Percentage of cells ± SD, Apoptotic” value in series [1] is recorded as 34.33 ± 6.13%; in series [5] it was 43.00 ± 2.17%. Also, the entries for the “Percentage of cells ± SD, Viable” value in series [1] and in series [5] were 65.00 ± 2.94% and 56.67 ± 2.62%, respectively. The IC50 in series [2] turned out to be 5 µM; in series [4] it was 6 µM. The “phosphorylation of GSK-3 fusion protein by AKT immunoprecipitated from treated cells” value in series [3] was “completely inhibited”.
